Measurements published in patent EP1247803A2, “Indolinone compounds suitable for modulation of protein kinases” (Sugen, Inc., priority 1996, dated 1998).

Assays:
FLK-1 receptor = target: T1, FLK-1 receptor (Mus musculus, UniProt P35918); test: FLK-1 ELISA (kinase activity of the FLK-1 receptor in FLK-1/NIH3T3 cells, VEGF stimulated); type: cell-based; set-up: concentration or dose not given beside the values
T1 construct: expressed in transfected cells; host or cells: NIH3T3 C7#3
Outline: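 FLK-1-expressing NIH3T3 C7#3 cells, starved overnight in 0.1% FBS medium, were treated with compounds at a 1:200 final dilution (0.5% DMSO) for 2 h at 37 °C, with VEGF stimulation. FLK-1 kinase activity was read by ELISA on anti-rabbit IgG plates using affinity-purified anti-FLK-1 antiserum.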

PDGF-R = PDGF-R (Homo sapiens, UniProt P09619); test: PDGF-R ELISA; type: cell-based
Chain of PDGF-R (P09619 33-1106, species assumed): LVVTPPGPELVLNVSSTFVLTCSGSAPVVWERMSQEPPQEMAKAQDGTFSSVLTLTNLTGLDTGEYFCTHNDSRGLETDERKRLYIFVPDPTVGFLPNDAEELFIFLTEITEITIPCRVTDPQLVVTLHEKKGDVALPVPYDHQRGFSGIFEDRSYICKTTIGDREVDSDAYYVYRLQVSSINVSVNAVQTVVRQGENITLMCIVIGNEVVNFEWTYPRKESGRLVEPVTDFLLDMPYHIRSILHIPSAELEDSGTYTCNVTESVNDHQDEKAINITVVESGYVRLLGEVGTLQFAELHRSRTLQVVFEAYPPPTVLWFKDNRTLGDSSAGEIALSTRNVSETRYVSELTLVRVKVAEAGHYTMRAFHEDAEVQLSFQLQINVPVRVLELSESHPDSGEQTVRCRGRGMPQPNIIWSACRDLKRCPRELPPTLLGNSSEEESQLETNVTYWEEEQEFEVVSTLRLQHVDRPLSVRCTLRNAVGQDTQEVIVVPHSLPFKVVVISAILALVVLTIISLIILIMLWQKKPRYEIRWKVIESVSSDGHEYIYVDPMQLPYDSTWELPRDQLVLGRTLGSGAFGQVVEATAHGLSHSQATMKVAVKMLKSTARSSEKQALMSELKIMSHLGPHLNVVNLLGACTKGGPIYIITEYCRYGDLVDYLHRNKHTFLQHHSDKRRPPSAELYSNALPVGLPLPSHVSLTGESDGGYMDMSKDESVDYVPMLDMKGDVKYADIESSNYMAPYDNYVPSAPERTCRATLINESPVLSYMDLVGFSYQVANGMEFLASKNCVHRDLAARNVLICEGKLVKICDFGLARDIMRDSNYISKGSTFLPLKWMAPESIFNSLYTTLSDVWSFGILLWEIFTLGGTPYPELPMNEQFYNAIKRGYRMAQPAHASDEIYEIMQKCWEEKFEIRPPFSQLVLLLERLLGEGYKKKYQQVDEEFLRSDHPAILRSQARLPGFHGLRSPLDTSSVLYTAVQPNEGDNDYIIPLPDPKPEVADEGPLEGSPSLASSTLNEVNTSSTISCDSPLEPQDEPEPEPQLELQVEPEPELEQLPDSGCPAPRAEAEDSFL
Source text: A PDGF-R ELISA is described in International Patent Publication No. WO 96/40116, published December 19, 1996 by Tang et al.

MET = MET biochemical kinase assay; set-up: species or system human; concentration or dose not given beside the values
Outline: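 In this format, tyrosine phosphorylation of plate-captured human MET is followed in vitro after compound addition in ATP/divalent-cation buffer, detected by anti-phosphotyrosine-HRP with TMB substrate.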

T1 sequence (P35918 20-1345): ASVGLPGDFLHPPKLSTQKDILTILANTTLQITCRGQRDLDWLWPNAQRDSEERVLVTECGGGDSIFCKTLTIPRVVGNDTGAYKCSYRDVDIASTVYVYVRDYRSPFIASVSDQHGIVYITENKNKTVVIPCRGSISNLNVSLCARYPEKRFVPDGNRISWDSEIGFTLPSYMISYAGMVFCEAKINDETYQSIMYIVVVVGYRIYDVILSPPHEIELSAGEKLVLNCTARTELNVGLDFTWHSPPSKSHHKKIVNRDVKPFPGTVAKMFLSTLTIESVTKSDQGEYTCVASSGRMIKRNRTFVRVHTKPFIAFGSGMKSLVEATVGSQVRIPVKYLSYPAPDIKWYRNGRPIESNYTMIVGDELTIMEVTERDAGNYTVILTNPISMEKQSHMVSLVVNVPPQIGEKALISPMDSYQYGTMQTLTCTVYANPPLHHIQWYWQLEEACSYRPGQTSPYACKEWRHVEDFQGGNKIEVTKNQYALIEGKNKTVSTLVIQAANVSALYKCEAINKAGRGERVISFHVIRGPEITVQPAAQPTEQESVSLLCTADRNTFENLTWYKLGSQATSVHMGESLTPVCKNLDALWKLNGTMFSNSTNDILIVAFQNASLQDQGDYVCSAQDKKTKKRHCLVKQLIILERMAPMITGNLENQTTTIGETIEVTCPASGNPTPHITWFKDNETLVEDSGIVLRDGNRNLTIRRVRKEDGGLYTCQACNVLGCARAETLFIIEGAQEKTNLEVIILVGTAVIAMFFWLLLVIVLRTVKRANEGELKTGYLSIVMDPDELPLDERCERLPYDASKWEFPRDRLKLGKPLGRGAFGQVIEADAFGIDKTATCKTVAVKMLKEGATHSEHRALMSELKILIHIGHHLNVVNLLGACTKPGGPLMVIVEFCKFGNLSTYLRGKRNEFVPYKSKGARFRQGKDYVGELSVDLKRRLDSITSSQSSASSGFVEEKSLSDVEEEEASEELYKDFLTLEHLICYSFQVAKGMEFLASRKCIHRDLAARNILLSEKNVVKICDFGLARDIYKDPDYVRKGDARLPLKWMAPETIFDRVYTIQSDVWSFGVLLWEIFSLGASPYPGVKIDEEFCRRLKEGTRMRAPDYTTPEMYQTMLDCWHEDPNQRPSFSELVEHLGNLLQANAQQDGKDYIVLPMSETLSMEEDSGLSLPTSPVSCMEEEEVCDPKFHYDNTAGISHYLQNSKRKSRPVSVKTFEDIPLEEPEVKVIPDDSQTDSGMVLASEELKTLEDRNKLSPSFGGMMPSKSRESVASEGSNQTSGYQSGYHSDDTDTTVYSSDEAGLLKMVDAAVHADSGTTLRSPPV

SMILES	Fik Kinase %Inhibition (FLK-1 receptor) [%]	PDGF Kinase %Inhibition (PDGF-R) [%]	Met Kinase % Inhibition (MET) [%]
O=C1Nc2ccc(CCCl)cc2C1=Cc1cccnc1 [10729/G08]	-1.0	0.8	39.9
O=C1Nc2ccc(S(=O)(=O)N3CCOCC3)cc2C1=Cc1cc2ccccc2nc1Cl [10730/F08]	2.1	-0.3	46.4
COc1ccc(C=C2C(=O)Nc3ccc(CCCl)cc32)c2ccccc12 [10729/G03]	10.4	13.7	20.1
O=C1Nc2ccc(S(=O)(=O)Nc3ccc(C(F)(F)F)cc3)cc2C1=Cc1cc2ccccc2nc1Cl [10730/E08]	25.1	48.4	40.3
Cc1cc(C=C2C(=O)Nc3c(Br)cc(Br)cc32)oc1C [10730/A11]	6.8	-6.4	91.0
O=C1Nc2ccc(S(=O)(=O)N3CCOCC3)cc2C1=Cc1coc2ccc(Cl)cc2c1=O [10730/F06]	21.9	3.2	56.5
CNS(=O)(=O)c1ccc2c(c1)C(=Cc1cc(OC)c(OC)c(OC)c1)C(=O)N2 [10730/D04]	9.1	20.8	33.6
Cc1c(Br)ccc2c1C(=Cc1ccc(-c3ccccc3Cl)o1)C(=O)N2 [10730/C07]	7.3	1.0	37.4
COc1cc(OC)c(OC)cc1C=C1C(=O)Nc2c(Br)cc(Br)cc21 [10730/A03]	-3.2	-11.2	62.3
COC1CC(C=C2C(=O)Nc3c(Br)cc(Br)cc32)C(OC)O1 (stereo not drawn) [10730/A10]	0.5	1.0	68.7
COC1CC(C=C2C(=O)Nc3ccc(I)cc32)C(OC)O1 (stereo not drawn) [10730/B10]	15.2	19.0	69.5
O=C1Nc2ccc(I)cc2C1=Cc1ccc(-c2ccccc2Cl)o1 [10730/B07]	0.6	2.4	63.1
O=C1Nc2ccc(S(=O)(=O)Nc3ccc(C(F)(F)F)cc3)cc2C1=Cc1coc2ccc(Cl)cc2c1=O [10730/E06]	11.1	26.0	52.8
COc1cc(OC)c(OC)cc1C=C1C(=O)Nc2ccc(S(=O)(=O)N3CCOCC3)cc21 [10730/F03]	11.7	1.5	-0.6
O=C1Nc2ccc(CCCl)cc2C1=Cc1cccc(Oc2ccccc2)c1 [10729/G06]	10.9	11.8	26.0
Cc1c(Br)ccc2c1C(=Cc1cc3ccccc3nc1Cl)C(=O)N2 [10730/C08]	-2.3	8.5	56.5
Cc1cc(C=C2C(=O)Nc3ccc(I)cc32)oc1C [10730/B11]	1.9	-13.9	81.7
O=C1Nc2ccc(S(=O)(=O)Nc3ccc(C(F)(F)F)cc3)cc2C1=Cc1ccc(N2CCCC2)cc1 [10729/E10]	5.7	11.8	7.5
CNS(=O)(=O)c1ccc2c(c1)C(=CC1CC(OC)OC1OC)C(=O)N2 (stereo not drawn) [10730/D10]	-15.3	-3.3	18.5
COc1ccc2ccccc2c1C=C1C(=O)Nc2ccc(CCCl)cc21 [10729/G02]	18.8	16.7	31.3
COc1cc(C=C2C(=O)Nc3c(Br)cc(Br)cc32)cc(OC)c1OC [10730/A04]	-9.9	-5.1	70.6
O=C1Nc2ccc(CCCl)cc2C1=Cc1ccc(N2CCCC2)cc1 [10729/G10]	-9.1	-13.2	26.7
COc1ccc(C=C2C(=O)Nc3ccc(S(=O)(=O)N4CCOCC4)cc32)c(OC)c1OC [10730/F02]	18.4	20.3	-6.2
O=C1Nc2ccc(I)cc2C1=Cc1coc2ccc(Cl)cc2c1=O [10730/B06]	2.4	7.6	71.3
